A short description of the series: gradient 5% acetonitrile 3 min, to 50% in 2 min, to 85% in 15 min, held 3 min, 100 µL/min. Conditions: column: Zorbax Extend-C18 2.1 x 50 mm; eluents: water / acetonitrile, 0.1% formic acid. The gist of the method:
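Retention times of pure standards were taken from adduct peaks that were selected by computer and manually inspected. Over 3 months, mixtures of ~100 molecules were run by HPLC–quadrupole time-of-flight mass spectrometry in positive and negative ionization mode. The Zorbax Extend-C18 column (2.1 × 50 mm, 1.8 μm) ran at 100 μL/min in water and acetonitrile, each containing 0.1% formic acid, with 40 μL dead volume and 900 μL dwell volume.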
Consider `COc1ccc(NC(=O)Cn2c(=O)n(-c3ccc(F)cc3)c(=O)c3c2cc(C)n3C)cc1`, for which the RP-LC retention time was 812 s.

`CCCNC(=O)C1CCCN(c2nc3ncn(CC(=O)Nc4cc(C)cc(C)c4)c(=O)c3s2)C1` (centres undefined): the RP-LC retention time was 759 s.

On to `Clc1cccc(-c2nnc(-c3nc(NCc4ccco4)c4ccccc4n3)o2)c1`, for which the RP-LC retention time worked out at 1050 s.

With `O=C(Cc1ccccc1F)NC1CCN(c2cc(-c3cccs3)[nH]n2)C1` (centres undefined), the RP-LC retention time was found to be 705 s.

In turn, `O=C(NC1CCCCC1)c1ccc2ccnc(N3CCN(c4ccc(F)cc4)CC3)c2c1` came in with an RP-LC retention time of 908 s.

For the compound `O=C(NCCc1nc(-c2ccccc2)cs1)C1CC(=O)N(c2n[nH]c3ccccc23)C1` (centres undefined), the RP-LC retention time came to 740 s.

`CC(=O)[C@H]1CCC2C3CC[C@H]4C[C@H](O)CC[C@]4(C)C3CC[C@@]21C` (some centres undefined): the RP-LC retention time worked out at 1270 s.

`O=S(=O)(c1cccc(-c2nnc(-c3ccccc3Br)o2)c1)N1CCOCC1` returned an RP-LC retention time of 940 s.

The compound `O=C(Nc1ccccc1F)[C@@H]1COCC(=O)N1Cc1cccs1` gave an RP-LC retention time of 741 s.

The compound `CN1CCCn2nc(C3CCN(S(=O)(=O)c4ccc5c(c4)OCCO5)CC3)cc2C1=O` registered an RP-LC retention time of 718 s.

Turning to `O=C(CCS(=O)(=O)c1ccccc1)N1CCCc2ccccc21`, the RP-LC retention time worked out at 779 s.

In the case of `Fc1cc(F)cc(-c2nnc(Cc3nc(-c4cccnc4)no3)o2)c1`, the RP-LC retention time worked out at 805 s.

`COc1cc([C@@H]2c3cc4c(cc3[C@H](O)[C@@H](CO)[C@@H]2C(=O)NCC2CC2)OCO4)cc(OC)c1OC`: the RP-LC retention time turned out to be 666 s.

In the case of `Cc1cc(N2CCN(C)CC2)nc2ccc(NC(=O)c3cccc([N+](=O)[O-])c3)cc12`, the RP-LC retention time was 576 s.

Take `O=C(Nc1ccc2sccc2c1)c1ccc(Cl)s1`: the RP-LC retention time was 996 s.

Turning to `Cn1nc(C(=O)N2CCCC(C(=O)Nc3ccccc3)C2)c2c1CCN(C(=O)C(C)(C)C)C2` (centres undefined), the RP-LC retention time was 745 s.

As to `COc1ccc(-c2[nH]c3ccccc3c2C(C[N+](=O)[O-])c2cccs2)cc1OC` (centres undefined), the RP-LC retention time turned out to be 960 s.

Regarding `CC(C)c1nnc(-c2ccc(S(=O)(=O)N3CCCCC3)o2)o1`, the RP-LC retention time was 890 s.

Regarding `O=C(CSc1nnc2c3sc(N4CCCC4)nc3ncn12)Nc1cccc(Cl)c1`, the RP-LC retention time came out at 874 s.

`Cc1cc(C2CCCN2C(=O)Nc2cc(Cl)ccc2C)no1` (centres undefined) returned an RP-LC retention time of 893 s.

Regarding `CCOC(=O)c1cc(S(=O)(=O)N2CCCC2C(=O)NC2CCCC2)cn1C` (centres undefined), the RP-LC retention time is 732 s.

`CN(CCc1noc(-c2ccc(Cl)cc2)n1)C(=O)NCc1ccco1` registered an RP-LC retention time of 868 s.

On to `COC(=O)c1nnn(-c2cc(C)ccc2OC)c1C(=O)OC`, for which the RP-LC retention time worked out at 862 s.

Turning to `Cc1cccc(NC(=O)CN2CCN(Cc3nc4ccccc4[nH]3)CC2)c1C`, the RP-LC retention time is 541 s.

Turning to `Cc1ccc2c(c1)N(C(=O)CCC(=O)NCCCN1CC(C)CC(C)C1)CC(C)O2` (centres undefined), the RP-LC retention time was found to be 704 s.

Regarding `Cc1ccoc1C(=O)N1CC(F)(F)C[C@H]1c1nc(C2CC2)no1`, the RP-LC retention time is 723 s.

`CC(C)C(=O)NCc1csc(C2CCCN(C(=O)C3CCCC3)C2)n1` (centres undefined) had an RP-LC retention time of 691 s.

In turn, `CN1c2ccc(Cl)cc2C(=O)NC12CCN(C(=O)NCc1ccccc1)CC2` displayed an RP-LC retention time of 789 s.

Compound `Cc1ccc(CNC(=O)C2(c3ccc(NS(C)(=O)=O)cc3)CCCCC2)cc1` gave an RP-LC retention time of 943 s.

Consider `CNC(=O)c1sc2nc(-c3cccc(F)c3)c(NCCCOC)n2c1C`, for which the RP-LC retention time was determined as 777 s.

Regarding `COC(=O)C1=C(NC(=O)COc2ccc(Cl)cc2Cl)CCS1`, the RP-LC retention time amounted to 1110 s.

Take `Cc1ccc(NS(=O)(=O)c2n[nH]c(C)c2C(=O)NCc2ccc(F)cc2F)cc1`: the RP-LC retention time was 821 s.

Consider `Cn1nc(-c2nnc(-c3ccccc3)o2)c2c1CCN(S(=O)(=O)c1ccc3c(c1)CCC3)C2`, for which the RP-LC retention time was found to be 688 s.

Compound `Cc1oc(C2CCN(C(=O)Nc3ccc(F)cc3)CC2)nc1C(=O)N(C)C` gave an RP-LC retention time of 684 s.

On to `CCN(CC)S(=O)(=O)c1ccc2nc(NCc3cc(F)cc(F)c3)cnc2c1`, for which the RP-LC retention time stood at 1060 s.

`Cc1ccc(CN2C(=O)NC3(CCN(C(=O)c4cccs4)CC3)C2=O)cc1` showed an RP-LC retention time of 820 s.

Compound `Cc1c(-c2noc(-c3ccccc3)n2)nnn1-c1ccc(F)cc1` registered an RP-LC retention time of 1070 s.

On to `Cc1cc(C)cc(N2CCC(NC(=O)c3ccsc3)C2=O)c1` (centres undefined), for which the RP-LC retention time stood at 815 s.

Regarding `O=C(Nc1ccc(Cl)c(C(F)(F)F)c1)C(=O)c1ccc[nH]1`, the RP-LC retention time amounted to 1050 s.

As to `Cc1ccc(C2=NC3(CCN(C(=O)Cc4cccs4)CC3)ON2)cc1`, the RP-LC retention time amounted to 829 s.

Regarding `COc1cccc(CNC(=O)C2CCN(c3cc(N4CCSCC4)ncn3)CC2)c1`, the RP-LC retention time was determined as 656 s.

As to `Cc1ccc(-c2noc(-c3cccc(S(=O)(=O)Nc4cccc(C#N)c4)c3)n2)cc1`, the RP-LC retention time amounted to 1160 s.

For `CCOC(=O)C1=C(CN(C)Cc2ccccc2)NC(=O)NC1c1cccs1` (centres undefined), the RP-LC retention time stood at 642 s.

`C(=C\c1ccccc1)/CN1CCN(C(c2ccccc2)c2ccccc2)CC1` came in with an RP-LC retention time of 972 s.

Consider `COc1ccccc1NC(=O)c1csc2c1CCCC2`, for which the RP-LC retention time turned out to be 1190 s.

`Cc1ccc(NS(=O)(=O)c2cn(CC(C)C)c3ncccc23)cc1C` registered an RP-LC retention time of 1040 s.

In turn, `Cc1nc2cc(N3CCCC(C(=O)NCc4ccccc4)C3)cnc2nc1C` (centres undefined) showed an RP-LC retention time of 705 s.

`CC1=C(c2ccc(C)c(C)c2)S(=O)(=O)N=C1N1CCCN(C(=O)c2cccnc2)CC1` showed an RP-LC retention time of 788 s.

`Cc1ccc(CN2CCN(CC(=O)NCCCc3ccccc3)C(=O)C2=O)cc1` showed an RP-LC retention time of 794 s.

Turning to `CCC1CCCCN1C(=O)c1cnc2nc(C)ccc2c1Nc1ccc(CC(=O)O)cc1` (centres undefined), the RP-LC retention time was found to be 598 s.

On to `CCc1nnc(-c2ccc3ccn(CC(=O)Nc4cccc(OC)c4)c3c2)o1`, for which the RP-LC retention time came out at 839 s.

As to `Cc1ccc(-c2noc(CN3C(=O)COc4ccccc43)n2)cc1`, the RP-LC retention time is 1030 s.

`Cc1nc(-c2csc(S(=O)(=O)N3CCC(C(=O)NCCC(C)C)CC3)c2)no1` gave an RP-LC retention time of 868 s.

Consider `CSCc1csc(NC(=O)c2ccc(F)c(F)c2)n1`, for which the RP-LC retention time was determined as 857 s.

As to `COc1ccc(-c2nnc(N3CCC(C(=O)NC4CCCCCC4)CC3)o2)cc1`, the RP-LC retention time was found to be 881 s.

The compound `CCCN1C(=O)COc2ccc(-c3noc(/C=C/c4ccc(OC)cc4)n3)cc21` returned an RP-LC retention time of 1190 s.

In the case of `COc1ccc(N2CC(c3nc(-c4ccc(C(F)(F)F)cc4)no3)CC2=O)cc1OC` (centres undefined), the RP-LC retention time was determined as 963 s.

On to `O=C1NC2(CCN(C(=O)c3c(F)cccc3F)CC2)N=C1c1cccc(F)c1`, for which the RP-LC retention time came to 815 s.

Turning to `CCNC(=O)C1CCN(c2nccc3sccc23)CC1`, the RP-LC retention time was 558 s.
